Assay results as given in patent publication US20220365085A1, “B[…], THE USE OF B[…], SENSORS […] WITH THE SAID B[…] AND THE DETECTION METHOD OF SARS-COV-2 VIRUS” (SENSDX SPÓLKA AKCYJNA, priority 2019, published 2022).
Numbered stars: 1 amine (or outer) side, 2 acyl side, 3 side chain; on linkers, the order of the positions; unused ones are H or OH. Square brackets hold non-standard residues; d marks the D form. Peptide text beside a SMILES is read from it. * marks the point of attachment. ξ: configuration not given here. X1 = O=C([C@@H](N[*:1])c1cnc[nH]1)[*:2]; Ile(3ξ) = CCC(C)[C@H](N)C(=O)O; Lauroyl = CCCCCCCCCCCC(=O)*

Biological target: WHN-N protein (SARS-CoV-2 nucleocapsid N protein) (Severe acute respiratory syndrome coronavirus 2, UniProt P0DTC9)
Assay type: binding

CCCCCCCCCCCC(=O)N[C@H](C(=O)N[C@H](C(=O)N[C@@H](CO)C(=O)N[C@@H](CC(N)=O)C(=O)N[C@@H](Cc1c[nH]cn1)C(=O)N[C@@H](CO)C(=O)N[C@@H](Cc1c[nH]cn1)C(=O)N[C@@H](Cc1c[nH]cn1)C(=O)N[C@@H](Cc1c[nH]cn1)C(=O)N[C@@H](CC(=O)O)C(=O)N[C@H](C(=O)N[C@@H](CC(C)C)C(N)=O)C(C)CC)C(C)CC)c1cnc[nH]1 (stereo partly drawn) [11-KOD1, 11-Mrcpt-HISNHSHHHDIL-NH2] (Lauroyl-[X1][Ile(3ξ)]SNHSHHHD[Ile(3ξ)]L-NH2)
specificity of the peptide sequence: specific for the WHN-N protein

CCCCCCCCCCCC(=O)N[C@H](C(=O)N1CCC[C@H]1C(=O)N[C@H](C(=O)N[C@@H](Cc1ccc(O)cc1)C(=O)N[C@@H](Cc1c[nH]cn1)C(=O)N[C@@H](CCCCN)C(=O)N[C@@H](CC(C)C)C(N)=O)C(C)CC)[C@@H](C)O (some centres unmarked) [11-KOD7, 11-Mrcpt-TPIYHKL-NH2] (Lauroyl-TP[Ile(3ξ)]YHKL-NH2)
specificity of the peptide sequence: specific for SARS-CoV-2 virus
